# Assay results taken from ChEMBL document CHEMBL4507258 (2021).
# Tests used:
# [1] = tested on: Tyrosine-protein kinase ABL1 (Homo sapiens), P00519 [H396P]; settings: Compound concentration 1000.0 nM
# [2] = tested on: Tyrosine-protein kinase ABL1 (Homo sapiens), P00519 [Y253F]; settings: Compound concentration 1000.0 nM
# [3] = target: Tyrosine-protein kinase ABL1 (Homo sapiens) (UniProt P00519); settings: Compound concentration 1000.0 nM
# [4] = target: Activin receptor type-2A (Homo sapiens) (UniProt P27037); settings: Compound concentration 1000.0 nM
# Chain of Activin receptor type-2A (Homo sapiens) (P27037 whole entry): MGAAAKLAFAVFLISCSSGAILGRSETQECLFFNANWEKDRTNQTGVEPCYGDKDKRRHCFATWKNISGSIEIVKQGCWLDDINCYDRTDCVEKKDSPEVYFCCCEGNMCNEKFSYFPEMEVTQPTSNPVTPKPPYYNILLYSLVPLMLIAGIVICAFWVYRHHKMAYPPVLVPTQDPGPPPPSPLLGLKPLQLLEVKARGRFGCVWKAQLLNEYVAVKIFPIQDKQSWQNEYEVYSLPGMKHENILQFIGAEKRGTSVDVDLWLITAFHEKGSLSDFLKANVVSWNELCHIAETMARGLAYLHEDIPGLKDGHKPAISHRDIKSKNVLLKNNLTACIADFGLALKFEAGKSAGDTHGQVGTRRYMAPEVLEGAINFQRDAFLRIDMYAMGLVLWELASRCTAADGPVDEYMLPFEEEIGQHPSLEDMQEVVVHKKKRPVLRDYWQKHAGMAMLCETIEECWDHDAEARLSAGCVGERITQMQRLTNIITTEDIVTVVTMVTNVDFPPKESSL
# [5] = target: Activin receptor type-2B (Homo sapiens) (UniProt Q13705); settings: Compound concentration 1000.0 nM
# [6] = target: Atypical kinase COQ8A, mitochondrial (Homo sapiens) (UniProt Q8NI60); settings: Compound concentration 1000.0 nM
# [7] = tested on: ALK tyrosine kinase receptor (Homo sapiens), Q9UM73 [L1196M]; settings: Compound concentration 1000.0 nM
# [8] = target: 5'-AMP-activated protein kinase catalytic subunit alpha-1 (Homo sapiens) (UniProt Q13131); settings: Compound concentration 1000.0 nM
# [9] = target: Tyrosine-protein kinase receptor UFO (Homo sapiens) (UniProt P30530); settings: Compound concentration 1000.0 nM
# Chain of Tyrosine-protein kinase receptor UFO (Homo sapiens) (P30530 whole entry): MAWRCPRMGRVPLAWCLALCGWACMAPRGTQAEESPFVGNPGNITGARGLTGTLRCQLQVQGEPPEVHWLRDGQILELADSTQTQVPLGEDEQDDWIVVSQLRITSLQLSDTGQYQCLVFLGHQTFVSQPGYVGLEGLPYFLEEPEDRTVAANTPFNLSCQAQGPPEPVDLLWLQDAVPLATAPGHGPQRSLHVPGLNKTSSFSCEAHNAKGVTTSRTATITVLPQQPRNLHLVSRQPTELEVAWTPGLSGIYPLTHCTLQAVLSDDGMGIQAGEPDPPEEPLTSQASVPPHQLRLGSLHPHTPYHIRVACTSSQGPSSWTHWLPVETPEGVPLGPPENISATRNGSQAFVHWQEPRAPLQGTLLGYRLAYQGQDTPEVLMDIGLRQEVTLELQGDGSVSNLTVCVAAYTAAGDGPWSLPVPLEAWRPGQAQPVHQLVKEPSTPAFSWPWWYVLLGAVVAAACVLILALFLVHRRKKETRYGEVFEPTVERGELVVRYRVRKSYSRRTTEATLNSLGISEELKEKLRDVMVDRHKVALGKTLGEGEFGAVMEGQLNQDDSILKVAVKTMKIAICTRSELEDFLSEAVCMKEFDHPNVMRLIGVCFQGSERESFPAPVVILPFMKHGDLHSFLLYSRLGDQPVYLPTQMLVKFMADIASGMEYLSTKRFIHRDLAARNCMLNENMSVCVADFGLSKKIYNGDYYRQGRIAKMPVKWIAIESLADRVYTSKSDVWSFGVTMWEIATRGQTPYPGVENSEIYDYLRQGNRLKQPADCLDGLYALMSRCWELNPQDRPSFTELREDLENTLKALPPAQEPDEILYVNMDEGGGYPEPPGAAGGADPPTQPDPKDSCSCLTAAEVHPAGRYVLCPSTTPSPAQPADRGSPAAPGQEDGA
# [10] = target: BMP-2-inducible protein kinase (Homo sapiens) (UniProt Q9NSY1); settings: Compound concentration 1000.0 nM
# [11] = target: Bone morphogenetic protein receptor type-1B (Homo sapiens) (UniProt O00238); settings: Compound concentration 1000.0 nM
# Chain of Bone morphogenetic protein receptor type-1B (Homo sapiens) (O00238 whole entry): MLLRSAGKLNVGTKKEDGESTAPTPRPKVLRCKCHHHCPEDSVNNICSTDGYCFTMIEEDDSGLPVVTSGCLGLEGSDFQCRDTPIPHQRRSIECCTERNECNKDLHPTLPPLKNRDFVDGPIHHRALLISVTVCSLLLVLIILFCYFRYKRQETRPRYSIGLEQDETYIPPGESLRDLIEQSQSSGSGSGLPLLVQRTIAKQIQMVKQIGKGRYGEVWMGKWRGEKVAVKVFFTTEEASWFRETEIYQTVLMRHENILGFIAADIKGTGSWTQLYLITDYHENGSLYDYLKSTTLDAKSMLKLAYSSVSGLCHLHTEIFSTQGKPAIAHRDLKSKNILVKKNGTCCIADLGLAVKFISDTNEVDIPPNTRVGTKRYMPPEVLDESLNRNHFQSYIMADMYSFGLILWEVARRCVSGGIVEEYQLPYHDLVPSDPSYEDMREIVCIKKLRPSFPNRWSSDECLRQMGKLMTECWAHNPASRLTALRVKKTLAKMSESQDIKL
# [12] = target: Cyclin-dependent kinase-like 5 (Homo sapiens) (UniProt O76039); settings: Compound concentration 1000.0 nM
# [13] = target: Tyrosine-protein kinase CSK (Homo sapiens) (UniProt P41240); settings: Compound concentration 1000.0 nM
# [14] = target: Discoidin domain-containing receptor 2 (Homo sapiens) (UniProt Q16832); settings: Compound concentration 1000.0 nM
# Chain of Discoidin domain-containing receptor 2 (Homo sapiens) (Q16832 whole entry, the tested form may be a part): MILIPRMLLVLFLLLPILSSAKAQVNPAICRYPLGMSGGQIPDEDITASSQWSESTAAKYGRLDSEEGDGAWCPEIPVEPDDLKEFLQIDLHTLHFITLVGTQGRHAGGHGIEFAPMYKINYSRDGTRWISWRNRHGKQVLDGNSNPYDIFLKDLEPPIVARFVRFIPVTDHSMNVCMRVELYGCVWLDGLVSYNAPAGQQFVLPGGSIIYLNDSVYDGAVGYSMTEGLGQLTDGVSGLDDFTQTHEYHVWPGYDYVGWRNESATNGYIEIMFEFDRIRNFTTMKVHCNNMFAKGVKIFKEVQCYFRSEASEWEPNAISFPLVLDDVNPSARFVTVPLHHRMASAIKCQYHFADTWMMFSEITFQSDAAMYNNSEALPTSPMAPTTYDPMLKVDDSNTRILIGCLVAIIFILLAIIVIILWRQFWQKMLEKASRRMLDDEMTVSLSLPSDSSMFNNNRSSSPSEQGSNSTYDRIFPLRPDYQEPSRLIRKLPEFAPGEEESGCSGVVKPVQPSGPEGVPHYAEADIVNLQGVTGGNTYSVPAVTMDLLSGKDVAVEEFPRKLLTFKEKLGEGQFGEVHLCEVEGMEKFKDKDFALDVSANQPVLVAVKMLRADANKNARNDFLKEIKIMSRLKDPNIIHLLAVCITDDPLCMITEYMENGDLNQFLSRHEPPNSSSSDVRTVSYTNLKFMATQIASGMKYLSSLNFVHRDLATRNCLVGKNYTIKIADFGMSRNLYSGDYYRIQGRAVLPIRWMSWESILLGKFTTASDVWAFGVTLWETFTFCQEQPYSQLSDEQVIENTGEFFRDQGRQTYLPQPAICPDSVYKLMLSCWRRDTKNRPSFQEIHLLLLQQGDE
# [15] = target: Mitogen-activated protein kinase 1 (Homo sapiens) (UniProt P28482); settings: Compound concentration 1000.0 nM
# Chain of Mitogen-activated protein kinase 1 (Homo sapiens) (P28482 whole entry): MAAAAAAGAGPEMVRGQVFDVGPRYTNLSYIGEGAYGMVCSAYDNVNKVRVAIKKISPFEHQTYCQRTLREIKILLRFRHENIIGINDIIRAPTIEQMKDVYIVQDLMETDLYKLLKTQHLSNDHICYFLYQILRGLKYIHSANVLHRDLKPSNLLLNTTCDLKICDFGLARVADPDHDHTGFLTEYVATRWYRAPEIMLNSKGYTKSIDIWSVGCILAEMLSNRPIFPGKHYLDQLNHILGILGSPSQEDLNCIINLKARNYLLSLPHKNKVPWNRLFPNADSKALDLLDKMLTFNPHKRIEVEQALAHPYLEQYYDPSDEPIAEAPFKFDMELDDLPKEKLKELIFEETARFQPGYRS
# [16] = target: Focal adhesion kinase 1 (Homo sapiens) (UniProt Q05397); settings: Compound concentration 1000.0 nM
# [17] = tested on: Receptor-type tyrosine-protein kinase FLT3 (Homo sapiens), P36888 [K663Q]; settings: Compound concentration 1000.0 nM
# [18] = target: Tyrosine-protein kinase Fyn (Homo sapiens) (UniProt P06241); settings: Compound concentration 1000.0 nM
# [19] = target: Tyrosine-protein kinase HCK (Homo sapiens) (UniProt P08631); settings: Compound concentration 1000.0 nM
# [20] = target: Serine/threonine-protein kinase ICK (Homo sapiens) (UniProt Q9UPZ9); settings: Compound concentration 1000.0 nM
# [21] = target: Inhibitor of nuclear factor kappa-B kinase subunit alpha (Homo sapiens) (UniProt O15111); settings: Compound concentration 1000.0 nM
# [22] = tested on: Mast/stem cell growth factor receptor Kit (Homo sapiens), P10721 [D816V]; settings: Compound concentration 1000.0 nM
# [23] = tested on: Mast/stem cell growth factor receptor Kit (Homo sapiens), P10721 [L576P]; settings: Compound concentration 1000.0 nM
# [24] = target: Mitogen-activated protein kinase kinase kinase 4 (Homo sapiens) (UniProt Q9Y6R4); settings: Compound concentration 1000.0 nM
# [25] = target: Serine/threonine-protein kinase MARK2 (Homo sapiens) (UniProt Q7KZI7); settings: Compound concentration 1000.0 nM
# [26] = target: Dual specificity mitogen-activated protein kinase kinase 2 (Homo sapiens) (UniProt P36507); settings: Compound concentration 1000.0 nM
# [27] = target: Dual specificity mitogen-activated protein kinase kinase 7 (Homo sapiens) (UniProt O14733); settings: Compound concentration 1000.0 nM
# [28] = target: Serine/threonine-protein kinase MRCK beta (Homo sapiens) (UniProt Q9Y5S2); settings: Compound concentration 1000.0 nM
# [29] = target: Mitogen-activated protein kinase kinase kinase 14 (Homo sapiens) (UniProt Q99558); settings: Compound concentration 1000.0 nM
# [30] = target: Mitogen-activated protein kinase 12 (Homo sapiens) (UniProt P53778); settings: Compound concentration 1000.0 nM
# [31] = target: Serine/threonine-protein kinase PAK 6 (Homo sapiens) (UniProt Q9NQU5); settings: Compound concentration 1000.0 nM
# [32] = target: Serine/threonine-protein kinase PAK 5 (Homo sapiens) (UniProt Q9P286); settings: Compound concentration 1000.0 nM
# [33] = target: Cyclin-dependent kinase 17 (Homo sapiens) (UniProt Q00537); settings: Compound concentration 1000.0 nM
# [34] = tested on: Phosphatidylinositol 4,5-bisphosphate 3-kinase catalytic subunit alpha isoform (Homo sapiens), P42336 [Q546K]; settings: Compound concentration 1000.0 nM
# Chain of Phosphatidylinositol 4,5-bisphosphate 3-kinase catalytic subunit alpha isoform (Homo sapiens), P42336 [Q546K] (P42336 whole entry Q546K, canonical isoform): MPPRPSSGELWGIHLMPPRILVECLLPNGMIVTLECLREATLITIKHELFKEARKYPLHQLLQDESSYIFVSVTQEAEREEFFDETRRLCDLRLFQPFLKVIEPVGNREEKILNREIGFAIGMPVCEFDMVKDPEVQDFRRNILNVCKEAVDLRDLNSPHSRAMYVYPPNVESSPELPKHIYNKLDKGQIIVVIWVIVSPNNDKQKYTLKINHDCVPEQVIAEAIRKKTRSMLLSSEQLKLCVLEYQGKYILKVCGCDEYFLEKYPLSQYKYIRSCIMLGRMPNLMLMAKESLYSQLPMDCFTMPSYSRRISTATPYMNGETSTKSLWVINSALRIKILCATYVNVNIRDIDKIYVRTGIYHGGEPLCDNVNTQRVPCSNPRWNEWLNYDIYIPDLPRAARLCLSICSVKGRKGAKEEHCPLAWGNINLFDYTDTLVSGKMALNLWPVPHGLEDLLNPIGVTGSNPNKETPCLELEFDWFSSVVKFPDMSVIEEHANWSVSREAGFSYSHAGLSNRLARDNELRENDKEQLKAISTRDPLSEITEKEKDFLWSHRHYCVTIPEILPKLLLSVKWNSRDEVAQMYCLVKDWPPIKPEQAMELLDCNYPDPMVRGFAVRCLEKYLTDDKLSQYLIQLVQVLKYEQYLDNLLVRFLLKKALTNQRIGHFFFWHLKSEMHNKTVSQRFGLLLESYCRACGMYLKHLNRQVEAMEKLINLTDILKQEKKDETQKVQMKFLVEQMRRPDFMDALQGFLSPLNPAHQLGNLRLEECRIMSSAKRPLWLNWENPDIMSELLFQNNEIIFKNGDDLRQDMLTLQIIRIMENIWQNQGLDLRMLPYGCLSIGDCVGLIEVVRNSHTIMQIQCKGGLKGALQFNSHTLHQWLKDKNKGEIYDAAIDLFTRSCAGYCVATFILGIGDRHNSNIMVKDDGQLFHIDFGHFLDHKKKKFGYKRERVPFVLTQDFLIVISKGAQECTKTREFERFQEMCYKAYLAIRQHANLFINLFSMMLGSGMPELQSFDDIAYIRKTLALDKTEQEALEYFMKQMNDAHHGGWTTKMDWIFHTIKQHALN
# [35] = target: Phosphatidylinositol 4,5-bisphosphate 3-kinase catalytic subunit delta isoform (Homo sapiens) (UniProt O00329); settings: Compound concentration 1000.0 nM
# [36] = target: Serine/threonine-protein kinase pim-2 (Homo sapiens) (UniProt Q9P1W9); settings: Compound concentration 1000.0 nM
# [37] = target: Receptor-interacting serine/threonine-protein kinase 4 (Homo sapiens) (UniProt P57078); settings: Compound concentration 1000.0 nM
# [38] = target: Proto-oncogene tyrosine-protein kinase Src (Homo sapiens) (UniProt P12931); settings: Compound concentration 1000.0 nM
# [39] = target: SRSF protein kinase 1 (Homo sapiens) (UniProt Q96SB4); settings: Compound concentration 1000.0 nM
# [40] = target: Tyrosine-protein kinase Tec (Homo sapiens) (UniProt P42680); settings: Compound concentration 1000.0 nM
# Chain of Tyrosine-protein kinase Tec (Homo sapiens) (P42680 whole entry): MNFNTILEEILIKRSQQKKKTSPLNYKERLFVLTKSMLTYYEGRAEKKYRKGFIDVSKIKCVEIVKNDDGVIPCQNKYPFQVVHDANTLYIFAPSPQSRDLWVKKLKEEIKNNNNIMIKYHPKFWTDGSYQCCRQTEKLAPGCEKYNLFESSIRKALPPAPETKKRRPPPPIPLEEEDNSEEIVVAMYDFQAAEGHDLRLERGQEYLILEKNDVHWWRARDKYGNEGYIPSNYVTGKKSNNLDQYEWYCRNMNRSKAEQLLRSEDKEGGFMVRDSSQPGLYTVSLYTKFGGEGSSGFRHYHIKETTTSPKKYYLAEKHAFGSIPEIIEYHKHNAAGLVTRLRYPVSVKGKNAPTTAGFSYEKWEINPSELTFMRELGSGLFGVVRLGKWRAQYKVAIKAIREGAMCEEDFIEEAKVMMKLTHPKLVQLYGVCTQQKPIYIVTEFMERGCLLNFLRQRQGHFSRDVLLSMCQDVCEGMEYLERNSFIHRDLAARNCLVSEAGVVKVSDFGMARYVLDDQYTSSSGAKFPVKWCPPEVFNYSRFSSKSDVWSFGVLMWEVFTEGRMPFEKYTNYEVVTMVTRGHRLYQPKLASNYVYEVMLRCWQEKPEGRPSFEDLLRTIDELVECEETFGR
# [41] = target: Dual specificity testis-specific protein kinase 1 (Homo sapiens) (UniProt Q15569); settings: Compound concentration 1000.0 nM
# [42] = target: Tyrosine-protein kinase Yes (Homo sapiens) (UniProt P07947); settings: Compound concentration 1000.0 nM
# [43] = target: 5-hydroxytryptamine receptor 2B (Homo sapiens, UniProt P41595); settings: Compound concentration 10.0 uM
# [44] = target: Histamine H2 receptor (Homo sapiens) (UniProt P25021); settings: Compound concentration 10.0 uM
# [45] = target: Beta-3 adrenergic receptor (Homo sapiens) (UniProt P13945); settings: Compound concentration 10.0 uM
smiles,measurement,setting,value
CCCCN(CCCC)C(=O)CN1C[C@H](c2cc(OC)c3c(c2)OCO3)[C@@H](C(=O)O)[C@@H]1CC(C)(C)CCC [ABT-546],residual activity,[1],96.3%
same,residual activity,[2],86.7%
same,residual activity,[3],96.5%
same,residual activity,[4],97.4%
same,residual activity,[5],100%
same,residual activity,[6],100%
same,residual activity,[7],100%
same,residual activity,[8],100%
same,residual activity,[9],100%
same,residual activity,[10],100%
same,residual activity,[11],59%
same,residual activity,[12],71.4%
same,residual activity,[13],100%
same,residual activity,[14],76.6%
same,residual activity,[15],100%
same,residual activity,[16],100%
same,residual activity,[17],100%
same,residual activity,[18],100%
same,residual activity,[19],100%
same,residual activity,[20],80.2%
same,residual activity,[21],56.2%
same,residual activity,[22],100%
same,residual activity,[23],100%
same,residual activity,[24],88.7%
same,residual activity,[25],100%
same,residual activity,[26],69.7%
same,residual activity,[27],90.8%
same,residual activity,[28],100%
same,residual activity,[29],100%
same,residual activity,[30],100%
same,residual activity,[31],100%
same,residual activity,[32],93.8%
same,residual activity,[33],99.3%
same,residual activity,[34],67.3%
same,residual activity,[35],100%
same,residual activity,[36],100%
same,residual activity,[37],85.5%
same,residual activity,[38],100%
same,residual activity,[39],100%
same,residual activity,[40],100%
same,residual activity,[41],100%
same,residual activity,[42],100%
same,inhibition,[43],-9.89%
same,inhibition,[44],24.3%
same,inhibition,[45],2.71%
CCCCN(CCCC)C(=O)CN1C[C@@H](c2cc(OC)c3c(c2)OCO3)[C@H](C(=O)O)[C@H]1CC(C)(C)CCC [A-545],residual activity,[1],89.4%
same,residual activity,[2],100%
same,residual activity,[3],94.8%
same,residual activity,[4],85.1%
same,residual activity,[5],85.1%
same,residual activity,[6],99.4%
same,residual activity,[7],100%
same,residual activity,[8],96.7%
same,residual activity,[9],87.2%
same,residual activity,[10],100%
same,residual activity,[11],100%
same,residual activity,[12],100%
same,residual activity,[13],100%
same,residual activity,[14],99.1%
same,residual activity,[15],82.1%
same,residual activity,[16],100%
same,residual activity,[17],80.1%
same,residual activity,[18],99.1%
same,residual activity,[19],82.8%
same,residual activity,[20],83.5%
same,residual activity,[21],100%
same,residual activity,[22],95.8%
same,residual activity,[23],100%
same,residual activity,[24],85.5%
same,residual activity,[25],100%
same,residual activity,[26],98%
same,residual activity,[27],88.6%
same,residual activity,[28],100%
same,residual activity,[29],100%
same,residual activity,[30],100%
same,residual activity,[31],100%
same,residual activity,[32],96.6%
same,residual activity,[33],93.3%
same,residual activity,[34],100%
same,residual activity,[35],87%
same,residual activity,[36],96.3%
same,residual activity,[37],77.2%
same,residual activity,[38],75.2%
same,residual activity,[39],62.5%
same,residual activity,[40],100%
same,residual activity,[41],94.3%
same,residual activity,[42],95.3%
same,inhibition,[43],76%
same,inhibition,[44],8.46%
same,inhibition,[45],28.4%
